Data reported in US11685744B2, “CDK inhibitors and their use as pharmaceuticals” (Prelude Therapeutics, Incorporated, priority 2020, dated 2023).
Like-named read-outs stand apart in the source and are kept apart here.

How the values were obtained:
[1] = Brain-to-plasma ratio (Kp) determination in Sprague-Dawley rats; conditions: male, rat, po, 10 mg/kg
Method: The brain-to-plasma ratio (Kp) was determined in male Sprague-Dawley rats (7-9 weeks old) four hours after a single oral dose. Rats were acclimated and given free access to standard rodent chow and water throughout the entire study. Test articles were formulated as a solution at 0.3, 0.4, 0.5, or 1.0 mg/mL in a vehicle comprised of 10:15:75 (v:v:v) dimethylacetamide (DMA):Solutol HS15:water and delivered orally at a rate of 10 mL/kg to three rats to achieve final doses of 3, 4, 5, or 10 mg/kg, respectively. At 4 hours post-dose, blood samples were collected via jugular vein cannula into tubes containing K2EDTA as the anticoagulant and stored on ice. Blood samples were then centrifuged at 4° C. at 6000 rpm for 5 minutes, and the resulting plasma was placed into tubes and stored frozen at −80° C. until analysis. Whole brain samples were also collected at 4 hours post-dose. The weight of each brain was measured and recorded, and samples were immediately stored on dry ice. Brain samples were then transferred to storage at −80° C. until analysis.
Prior to analysis, brain samples were combined with water (4 mL/1 gram of brain) and homogenized. Prior to injection, plasma and brain homogenate samples and standards were prepared for analysis by precipitation with acetonitrile or 1:1 (v:v) methanol:acetonitrile. Samples were then thoroughly mixed, centrifuged at 4000 rpm for 15 minutes, and the resulting supernatant was transferred for analysis. Test article concentrations in plasma and brain homogenate were then determined by LC-MS/MS and quantified against calibration standards prepared to known concentrations in matched blank (analyte-free) biological matrix. The Kp was then determined by dividing the dilution-corrected brain concentration by the plasma concentration from each rat. A brain density of 1 gram/mL was assumed for all calculations.

[2] = tested on: MCF7 adenocarcinoma cell line; assay: Cell proliferation studies in MCF7 cells (ATP-Lite, 10 days); assay type: cell-based; conditions: read-out: PROLIFERATION_CTG_MCF7 IC50
How it was run: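 Cells were seeded at 100 or 200 per well in DMEM with 10% FBS and dosed in quadruplicate over a 9-point 3-fold dilution. Incubation lasted 10 days at 37 °C, with media exchange and re-dosing on day 5. Viability was read by ATP-Lite luminescence and normalised to background and DMSO, giving IC50.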

CDK4/Cyclin D1 = CDK4/Cyclin D1 (Homo sapiens (Human), UniProt P11802); assay: CDK4/CyclinD1 enzymatic activity assay (TR-FRET); assay type: biochemical; conditions: ATP 2 mM, read-out: CDK4_D1 IC50
Chain of CDK4/Cyclin D1 (P11802 whole entry): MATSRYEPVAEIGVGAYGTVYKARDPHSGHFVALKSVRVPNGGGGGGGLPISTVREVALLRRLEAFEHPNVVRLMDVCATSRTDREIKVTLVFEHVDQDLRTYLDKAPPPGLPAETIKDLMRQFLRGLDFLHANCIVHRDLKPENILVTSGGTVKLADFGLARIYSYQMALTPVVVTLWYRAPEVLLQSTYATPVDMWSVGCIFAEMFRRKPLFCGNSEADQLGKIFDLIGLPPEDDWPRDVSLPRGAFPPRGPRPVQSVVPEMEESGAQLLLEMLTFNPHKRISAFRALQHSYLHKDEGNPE
Chain of CDK4/Cyclin D1 (P24385 whole entry partner): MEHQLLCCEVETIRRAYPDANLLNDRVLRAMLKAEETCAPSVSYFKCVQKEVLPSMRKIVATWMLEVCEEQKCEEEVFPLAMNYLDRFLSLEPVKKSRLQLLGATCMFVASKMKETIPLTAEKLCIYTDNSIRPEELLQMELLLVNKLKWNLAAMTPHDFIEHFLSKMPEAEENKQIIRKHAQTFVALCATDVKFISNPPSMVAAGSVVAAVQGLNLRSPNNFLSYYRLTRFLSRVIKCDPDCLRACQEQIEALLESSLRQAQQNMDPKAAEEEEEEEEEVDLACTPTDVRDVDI
How it was run: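 Insect-cell CDK4/Cyclin D1 (1 nM) with ULight-4E-BP1 (100 nM) and 2 mM ATP in HEPES pH 7.4 buffer, preincubated 20 min with compound (9-dose, 3-fold dilutions); 10 mM MgCl2 started the reaction, run 60 min at 37 °C. EDTA/Eu-anti-phospho-4E-BP1 TR-FRET detection; IC50 from 4-parameter Hill fit.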

CDK6/Cyclin D1 = CDK6/Cyclin D1 (Homo sapiens (Human), UniProt Q00534); assay: CDK6/CyclinD1 enzymatic activity assay (TR-FRET); assay type: biochemical; conditions: ATP 250 μM, read-out: CDK6_D1 IC50
Chain of CDK6/Cyclin D1 (Q00534 whole entry): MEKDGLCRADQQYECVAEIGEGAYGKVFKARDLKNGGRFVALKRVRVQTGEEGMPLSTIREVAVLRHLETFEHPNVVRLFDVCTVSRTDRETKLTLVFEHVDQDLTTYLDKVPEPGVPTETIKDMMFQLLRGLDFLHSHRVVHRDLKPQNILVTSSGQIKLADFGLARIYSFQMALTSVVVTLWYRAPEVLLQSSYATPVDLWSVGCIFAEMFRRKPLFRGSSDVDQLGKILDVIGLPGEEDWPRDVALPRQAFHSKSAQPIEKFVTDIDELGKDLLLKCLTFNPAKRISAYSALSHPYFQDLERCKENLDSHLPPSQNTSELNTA
Chain of CDK6/Cyclin D1 (P24385 whole entry partner): as the sequence (P24385 whole entry partner) above
Method: CDK6/CyclinD1 Enzymatic Activity Assay
The inhibitory activity of compounds was evaluated in vitro using TR-FRET assay with white 384-well low volume microplate (Greiner Bio-One). CDK6/Cyclin D1 catalyzed phosphorylation of peptide in the presence and absence of compounds was measured and used in IC50 determination. Recombinant protein complex CDK6/Cyclin D1, expressed from insect cell, was purchased from ProQinase. Testing compounds were dissolved in DMSO at 0.1 mM and tested in 9-dose IC50 mode. The reaction mixture was prepared by mixing CDK6/Cyclin D1 (1 nM final), ULight-4E-BP1 (100 nM final, Perkinelmer, TRF0128-D), and ATP (250 μM final) in assay buffer (20 mM of HEPES pH 7.4, 1 mM of EGTA, 0.05% BSA, 0.005% Tween 20, and 1 mM TCEP). The compound of interest in DMSO was added to each well in 3-fold serial dilution by dispenser (TECAN D300E). After 20 minutes preincubation at room temperature, 0.1 μL MgCl2 (10 mM final) was added to initiate the reaction. Following a 60 minutes incubation at 37° C., the reaction was stopped by addition of 2 μL of quenching buffer consisting of Lance detection buffer (Perkinelmer CR97-100C), 2 nM LANCE Ultra Europium-anti-P-4E-BP1 (Perkinelmer, TRF0216-D), 10 mM EDTA, and incubate at room temperature for additional 60 minutes in dark. The reaction signal was measured by Envision multimode plate reader (PerkinElmer, 2102-0010). IC50 values were determined by fitting the data to the standard 4 parameters with Hill Slope using GraphPad Prism software.

Structure (SMILES): CCN1CCC(c2ccc(Nc3ncc(F)c(-c4sc5c(nc(C)n5C5CCC5)c4C)n3)nc2)CC1 [Example 8, 4-(3-Cyclobutyl-2,6-dimethyl-3H-thieno[2,3-d]imidazol-5-yl)-N-(5-(1-ethylpiperidin-4-yl)pyridin-2-yl)-5-fluoro-pyrimidin-2-amine]
- Kp at 4 h ([1]; brain (homogenate) versus plasma): 1 to 3
- IC50 ([2]; Homo sapiens, 240 h): 20 to 200 nM
- IC50 (CDK4/Cyclin D1): ≤ 20 nM

Structure (SMILES): CCN1CC2(C1)CN(c1ccc(Nc3ncc(F)c(-c4cc5nccc(C(C)(C)O)c5s4)n3)nc1)C2 [Example 21, 2-[2-[2-[[5-(6-Ethyl-2,6-diazaspiro[3.3]heptan-2-yl)pyridin-2-yl]amino]-5-fluoropyrimidin-4-yl]thieno[3,2-b]pyridin-7-yl]propan-2-ol]
- Kp at 4 h ([1]; brain / plasma): < 1
- IC50 ([2]; Homo sapiens, 240 h): 20 to 200 nM
- IC50 (CDK4/Cyclin D1): ≤ 20 nM

Structure (SMILES): CCN1CCN(Cc2ccc(Nc3ncc(F)c(-c4sc5c(C6CCCC6)ccnc5c4Cl)n3)nc2)CC1 [Example 30, 4-(3-Chloro-7-cyclopentylthieno[3,2-b]pyridin-2-yl)-N-[5-[(4-ethylpiperazin-1-yl)methyl]pyridin-2-yl]-5-fluoropyrimidin-2-amine]
- IC50 ([2]; Homo sapiens, 240 h): 20 to 200 nM
- IC50 (CDK6/Cyclin D1): 20 to 200 nM
- IC50 (CDK4/Cyclin D1): ≤ 20 nM

Structure (SMILES): CCN1CC2(C1)CN(c1ccc(Nc3ncc(F)c(-c4sc5c(nc(C)n5C(C)C)c4C)n3)nn1)C2 [Example 53, 6-(6-Ethyl-2,6-diazaspiro[3.3]heptan-2-yl)-N-(5-fluoro-4-(3-isopropyl-2,6-dimethyl-3H-thieno[2,3-d]imidazol-5-yl)pyrimidin-2-yl)pyridazin-3-amine]
- IC50 ([2]; Homo sapiens, 240 h): 20 to 200 nM
- IC50 (CDK6/Cyclin D1): ≤ 20 nM
- IC50 (CDK4/Cyclin D1): ≤ 20 nM

Structure (SMILES): CCN1C2CC1CN(c1ccc(Nc3ncc(F)c(-c4cc5c(=O)n(C)cc(C(C)C)c5s4)n3)nc1)C2 [Example 58, 2-(2-((5-(6-Ethyl-3,6-diazabicyclo[3.1.1]heptan-3-yl)pyridin-2-yl)amino)-5-fluoropyrimidin-4-yl)-7-isopropyl-5-methylthieno[3,2-c]pyridin-4(5H)-one]
- IC50 ([2]; Homo sapiens, 240 h): 20 to 200 nM
- IC50 (CDK6/Cyclin D1): 20 to 200 nM
- IC50 (CDK4/Cyclin D1): ≤ 20 nM

Structure (SMILES): CCN1CCN(C(=O)c2ccc(Nc3ncc(F)c(-c4cc5c(=O)n(C)cc(C(C)C)c5s4)n3)nc2)CC1 [Example 59, 2-(2-((5-(4-Ethylpiperazine-1-carbonyl)pyridin-2-yl)amino)-5-fluoropyrimidin-4-yl)-7-isopropyl-5-methylthieno[3,2-c]pyridin-4(5H)-one]
- IC50 ([2]; Homo sapiens, 240 h): 20 to 200 nM
- IC50 (CDK6/Cyclin D1): 20 to 200 nM
- IC50 (CDK4/Cyclin D1): ≤ 20 nM

Structure (SMILES): CCN1CC2(C1)CN(c1ccc(Nc3ncc(F)c(-c4sc5c(c4C)c(=O)ncn5C(C)C)n3)nc1)C2 [Example 62, 6-(2-((5-(6-Ethyl-2,6-diazaspiro[3.3]heptan-2-yl)pyridin-2-yl)amino)-5-fluoropyrimidin-4-yl)-1-isopropyl-5-methylthieno[2,3-d]pyrimidin-4(1H)-one]
- IC50 ([2]; Homo sapiens, 240 h): 20 to 200 nM
- IC50 (CDK6/Cyclin D1): ≤ 20 nM
- IC50 (CDK4/Cyclin D1): ≤ 20 nM

Structure (SMILES): Cc1c(-c2nc(Nc3ccc(N4CC5(CCN5C)C4)cn3)ncc2F)sc2c1nc(C)n2C(C)C [Example 67, 4-(2,6-Dimethyl-3-propan-2-ylthieno[2,3-d]imidazol-5-yl)-5-fluoro-N-[5-(1-methyl-1,6-diazaspiro[3.3]heptan-6-yl)pyridin-2-yl]pyrimidin-2-amine]
- IC50 ([2]; Homo sapiens, 240 h): 20 to 200 nM
- IC50 (CDK6/Cyclin D1): ≤ 20 nM
- IC50 (CDK4/Cyclin D1): ≤ 20 nM

Structure (SMILES): CCN1CC2(C1)CN(C(=O)c1ccc(Nc3ncc(F)c(-c4cc5nc(C)n(C(C)C)c5s4)n3)nc1)C2 [Example 71, (6-Dthyl-2,6-diazaspiro[3.3]heptan-2-yl)-[6-[[5-fluoro-4-(2-methyl-3-propan-2-ylthieno[2,3-d]imidazol-5-yl)pyrimidin-2-yl]amino]pyridin-3-yl]methanone]
- IC50 [2]: 20 to 200 nM
- IC50 (CDK6/Cyclin D1): 20 to 200 nM
- IC50 (CDK4/Cyclin D1): ≤ 20 nM

Structure (SMILES): Cc1nc2cc(-c3nc(Nc4ccc(N5CC(N(C)C)C5)cn4)ncc3F)sc2n1C(C)C [Example 72, N-[5-[3-(Dimethylamino)azetidin-1-yl]pyridin-2-yl]-5-fluoro-4-(2-methyl-3-propan-2-ylthieno[2,3-d]imidazol-5-yl)pyrimidin-2-amine]
- IC50 ([2]; Homo sapiens, 240 h): 20 to 200 nM
- IC50 (CDK6/Cyclin D1): ≤ 20 nM
- IC50 (CDK4/Cyclin D1): ≤ 20 nM

Structure (SMILES): Cc1c(-c2nc(Nc3ccc(N4CCN(C)CC4=O)cn3)ncc2F)sc2c1nc(C)n2C(C)C [Example 75, 1-[6-[[4-(2,6-Dimethyl-3-propan-2-ylthieno[2,3-d]imidazol-5-yl)-5-fluoropyrimidin-2-yl]amino]pyridin-3-yl]-4-methylpiperazin-2-one]
- IC50 ([2]; Homo sapiens, 240 h): ≤ 20 nM
- IC50 (CDK6/Cyclin D1): ≤ 20 nM
- IC50 (CDK4/Cyclin D1): ≤ 20 nM

Structure (SMILES): Cc1c(-c2nc(Nc3ccc(N4CCN(CC(F)(F)F)CC4)cn3)ncc2F)sc2c(C(C)C)cn(C)c(=O)c12 [Example 80, 2-(5-Fluoro-2-((5-(4-(2,2,2-trifluoroethyl)piperazin-1-yl)pyridin-2-yl)amino)pyrimidin-4-yl)-7-isopropyl-3,5-dimethylthieno[3,2-c]pyridin-4(5H)-one]
- IC50 ([2]; Homo sapiens, 240 h): 200 to 2000 nM
- IC50 (CDK6/Cyclin D1): 20 to 200 nM
- IC50 (CDK4/Cyclin D1): 20 to 200 nM

Structure (SMILES): CCN1CC2CC1CN2c1ccc(Nc2ncc(F)c(-c3cc4c(=O)n(C)cc(C(C)C)c4s3)n2)nc1 (stereo not drawn) [Example 81, 2-(2-((5-(5-Ethyl-2,5-diazabicyclo[2.2.1]heptan-2-yl)pyridin-2-yl)amino)-5-fluoropyrimidin-4-yl)-7-isopropyl-5-methylthieno[3,2-c]pyridin-4(5H)-one]
- IC50 ([2]; Homo sapiens, 240 h): 20 to 200 nM
- IC50 (CDK6/Cyclin D1): ≤ 20 nM
- IC50 (CDK4/Cyclin D1): ≤ 20 nM

Structure (SMILES): Cc1c(-c2nc(Nc3ccc(N4CC5(C4)CN(C(C)C)C5)cn3)ncc2F)sc2c(C(C)C)cn(C)c(=O)c12 [Example 92, 2-(5-Fluoro-2-((5-(6-isopropyl-2,6-diazaspiro[3.3]heptan-2-yl)pyridin-2-yl)amino)pyrimidin-4-yl)-7-isopropyl-3,5-dimethylthieno[3,2-c]pyridin-4(5H)-one]
- IC50 ([2]; Homo sapiens, 240 h): 20 to 200 nM
- IC50 (CDK6/Cyclin D1): ≤ 20 nM
- IC50 (CDK4/Cyclin D1): ≤ 20 nM

Structure (SMILES): Cc1c(-c2nc(Nc3ccc(C4CCNCC4)cn3)ncc2F)sc2c(C(C)C)cn(C)c(=O)c12 [Example 94, 2-(5-Fluoro-2-((5-(piperidin-4-yl)pyridin-2-yl)amino)pyrimidin-4-yl)-7-isopropyl-3,5-dimethylthieno[3,2-c]pyridin-4(5H)-one]
- IC50 ([2]; Homo sapiens, 240 h): 20 to 200 nM
- IC50 (CDK6/Cyclin D1): ≤ 20 nM
- IC50 (CDK4/Cyclin D1): ≤ 20 nM

Structure (SMILES): Cc1c(-c2nc(Nc3ccc(C4CN(C)C4)cn3)ncc2F)sc2c1nc(C)n2C(C)C [Example 108, 5-Fluoro-4-(3-isopropyl-2,6-dimethyl-3H-thieno[2,3-d]imidazol-5-yl)-N-(5-(1-methylazetidin-3-yl)pyridin-2-yl)pyrimidin-2-amine]
- IC50 ([2]; Homo sapiens, 240 h): 20 to 200 nM
- IC50 (CDK6/Cyclin D1): 20 to 200 nM
- IC50 (CDK4/Cyclin D1): ≤ 20 nM

Structure (SMILES): CCN1CC2(C1)CN(c1ccc(Nc3ncc(F)c(-c4cc5c(=O)n(C)nc(C6CN(C(=O)OC(C)(C)C)C6)c5s4)n3)nc1)C2 [Example 109, tert-Butyl 3-(2-(2-((5-(6-ethyl-2,6-diazaspiro[3.3]heptan-2-yl)pyridin-2-yl)amino)-5-fluoropyrimidin-4-yl)-5-methyl-4-oxo-4,5-dihydrothieno[2,3-d]pyridazin-7-yl)azetidine-1-carboxylate]
- IC50 ([2]; Homo sapiens, 240 h): 20 to 200 nM
- IC50 (CDK6/Cyclin D1): 20 to 200 nM
- IC50 (CDK4/Cyclin D1): ≤ 20 nM

Structure (SMILES): CCN1CCN(c2ccc(Nc3ncc(F)c(-c4sc5c(C(C)C)ccnc5c4C(F)(F)F)n3)nc2)CC1 [Example 121, N-[5-(4-Ethylpiperazin-1-yl)pyridin-2-yl]-5-fluoro-4-[7-propan-2-yl-3-(trifluoromethyl)thieno[3,2-b]pyridin-2-yl]pyrimidin-2-amine]
- IC50 ([2]; Homo sapiens, 240 h): 20 to 200 nM
- IC50 (CDK6/Cyclin D1): 20 to 200 nM
- IC50 (CDK4/Cyclin D1): ≤ 20 nM
